ChEMBL document CHEMBL1127992, “Novel conformationally restricted aromatic piperidines as selective sigma receptor ligands” (Bioorg Med Chem Lett, 1994)

Legend:
D(2) dopamine receptor = D(2) dopamine receptor (Homo sapiens, UniProt P14416); test: Displacement of [3H]-spiperone from dopamine D2 receptor
[1] = target: Serotonin 2 (5-HT2) receptor (Homo sapiens, UniProt P41595+P28223+P28335); test: Displacement of [3H]ketanserin from 5-hydroxytryptamine 2 receptor; assay type: protein assay

Chain of D(2) dopamine receptor (P14416 whole entry): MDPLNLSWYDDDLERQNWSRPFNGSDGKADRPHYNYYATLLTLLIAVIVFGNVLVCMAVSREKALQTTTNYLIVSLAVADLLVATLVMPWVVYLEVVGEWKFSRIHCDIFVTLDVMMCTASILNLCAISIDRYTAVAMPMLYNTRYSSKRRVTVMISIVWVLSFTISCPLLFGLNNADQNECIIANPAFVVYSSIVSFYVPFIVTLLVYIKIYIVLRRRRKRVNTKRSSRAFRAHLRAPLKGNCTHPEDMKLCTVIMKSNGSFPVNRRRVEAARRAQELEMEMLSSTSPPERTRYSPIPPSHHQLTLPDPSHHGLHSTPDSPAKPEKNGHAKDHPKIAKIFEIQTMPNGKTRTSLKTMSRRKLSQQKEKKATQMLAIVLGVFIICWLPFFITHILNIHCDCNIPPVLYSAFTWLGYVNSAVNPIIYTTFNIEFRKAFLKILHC

## C(#Cc1ccccc1)CN(c1ccccc1)C1CCN(Cc2ccccc2)CC1.O=C(O)/C=C/C(=O)O
D(2) dopamine receptor
  IC50: 0.89 µM
[1]
  Ki: 0.28 µM

## CN(C/C=C/c1ccccc1)C1CCN(Cc2ccccc2)CC1.O=C(O)/C=C/C(=O)O
D(2) dopamine receptor
  IC50: > 10 µM
[1]
  Ki: 0.84 µM

## C(=C\c1ccccc1)/CN(c1ccccc1)C1CCN(Cc2ccccc2)CC1.O=C(O)/C=C/C(=O)O
D(2) dopamine receptor
  IC50: > 10 µM
[1]
  Ki: > 10 µM

## CN(C(=O)/C=C/c1ccccc1)C1CCN(Cc2ccccc2)CC1.O=C(O)/C=C/C(=O)O
D(2) dopamine receptor
  IC50: 7.1 µM
[1]
  Ki: 1.5 µM

## CN(CC#Cc1ccccc1)C1CCN(Cc2ccccc2)CC1.O=C(O)/C=C/C(=O)O
D(2) dopamine receptor
  IC50: 4.1 µM
[1]
  Ki: 0.32 µM

## O=C(C#Cc1ccccc1)NC1CCN(Cc2ccccc2)CC1.O=C(O)/C=C/C(=O)O
D(2) dopamine receptor
  IC50: 2.5 µM
[1]
  Ki: 0.28 µM

## C(=C\c1ccccc1)/CNC1CCN(Cc2ccccc2)CC1.O=C(O)/C=C/C(=O)O
D(2) dopamine receptor
  IC50: > 10 µM
[1]
  Ki: 4.6 µM

## C(#Cc1ccccc1)CNC1CCN(Cc2ccccc2)CC1.O=C(O)/C=C/C(=O)O
D(2) dopamine receptor
  IC50: > 10 µM
[1]
  Ki: 3.3 µM

## O=C(/C=C/c1ccccc1)NC1CCN(Cc2ccccc2)CC1.O=C(O)/C=C/C(=O)O
D(2) dopamine receptor
  IC50: 4.7 µM
[1]
  Ki: 0.1 µM

## CN(C(=O)C#Cc1ccccc1)C1CCN(Cc2ccccc2)CC1.O=C(O)/C=C/C(=O)O
D(2) dopamine receptor
  IC50: 4.9 µM
[1]
  Ki: 1.7 µM

## C(=C\c1ccccc1)/CN(C/C=C/c1ccccc1)C1CCN(Cc2ccccc2)CC1.O=C(O)/C=C/C(=O)O
D(2) dopamine receptor
  IC50: > 10 µM
[1]
  Ki: 0.55 µM
